Data: ChEMBL document CHEMBL1201862, “PubChem BioAssay data set” (2004)
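1) Cells in 96-well plates. 2) Compound, 48 h, 5 concentrations. 3) Linear interpolation between surrounding doses. 4) Unreached endpoint = highest concentration. GI50 is the concentration that inhibits growth by half.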 The source made the active and inactive calls. No stated cut-off is given here; in the data, active = GI50 up to about 1.1 µM and inactive = higher.

Assays:
Test in all cases: inhibition of tumour cell growth, NCI panel, 48 h
[1] = tested on: NCI-H460
[2] = tested on: OVCAR-8
[3] = tested on: A498
[4] = tested on: MDA-MB-435
[5] = tested on: SK-OV-3
[6] = tested on: M14
[7] = tested on: A549
[8] = tested on: SNB-75
[9] = tested on: HT-29
[10] = tested on: UO-31
[11] = tested on: U-251
[12] = tested on: T47D
[13] = tested on: TK-10
[14] = tested on: MCF7
[15] = tested on: COLO 205
[16] = tested on: HOP-92
[17] = tested on: HCT-116
[18] = tested on: 786-0
[19] = tested on: KM12
[20] = tested on: SF-268
[21] = tested on: RPMI-8226
[22] = tested on: IGROV-1
[23] = tested on: DU-145
[24] = tested on: SW-620
[25] = tested on: OVCAR-4
[26] = tested on: HCT-15
[27] = tested on: Hs-578T
[28] = tested on: PC-3
[29] = tested on: MOLT-4
[30] = tested on: NCI/ADR-RES
[31] = tested on: CAKI-1
[32] = tested on: BT-549
[33] = tested on: UACC-257
[34] = tested on: SNB-19
[35] = tested on: NCI-H23
[36] = tested on: OVCAR-5
[37] = tested on: RXF 393
[38] = tested on: K562
[39] = tested on: LOX IMVI
[40] = tested on: CCRF-CEM
[41] = tested on: SK-MEL-5
[42] = tested on: OVCAR-3
[43] = tested on: EKVX
[44] = tested on: NCI-H522
[45] = tested on: ACHN
[46] = tested on: HL-60
[47] = tested on: MDA-N
[48] = tested on: SF-539
[49] = tested on: HOP-62
[50] = tested on: SF-295
[51] = tested on: SR
[52] = tested on: MDA-MB-231
[53] = tested on: NCI-H226

With `O=NC1c2cccc3cccc(c23)C1N=O` (stereo not given) the GI50 [1] was 4.36 µM (inactive), the GI50 [2] was 2.07 µM (inactive) and the GI50 [3] was 17.5 µM (inactive). The GI50 [4] was 4.78 µM (inactive), the GI50 [5] was 11 µM (inactive) and the GI50 [6] was 12 µM (inactive). The GI50 [7] was 2.43 µM (inactive), the GI50 [8] was 9.79 µM (inactive) and the GI50 [9] was 10.9 µM (inactive). The GI50 [10] was 2.76 µM (inactive), the GI50 [11] was 3.1 µM (inactive) and the GI50 [12] was 17 µM (inactive). For the same molecule, the GI50 [13] was 10.2 µM (inactive), the GI50 [14] was 7.93 µM (inactive) and the GI50 [15] was 3.17 µM (inactive). The GI50 [16] was 7.11 µM (inactive), the GI50 [17] was 1.34 µM (inactive) and the GI50 [18] was 12.9 µM (inactive). For the same molecule, the GI50 [19] was 3.89 µM (inactive), the GI50 [20] was 10.2 µM (inactive) and the GI50 [21] was 8.17 µM (inactive). The GI50 [22] was 1.08 µM (active), the GI50 [23] was 11.1 µM (inactive) and the GI50 [24] was 2.45 µM (inactive). For the same molecule, the GI50 [25] was 1.59 µM (inactive), the GI50 [26] was 1.79 µM and the GI50 [27] was 15.9 µM (inactive). The GI50 [28] was 10.1 µM (inactive), the GI50 [29] was 0.612 µM (active) and the GI50 [30] was 2.39 µM (inactive). The GI50 [31] was 2.77 µM (inactive), the GI50 [32] was 4.21 µM (inactive) and the GI50 [33] was 12.9 µM (inactive). The GI50 [34] was 11.8 µM (inactive), the GI50 [35] was 8.87 µM (inactive) and the GI50 [36] was 2.83 µM (inactive). For the same molecule, the GI50 [37] was 3.51 µM (inactive), the GI50 [38] was 2.65 µM (inactive) and the GI50 [39] was 1.59 µM (inactive). The GI50 [40] was 1.19 µM (inactive), the GI50 [41] was 14 µM (inactive) and the GI50 [42] was 2.69 µM (inactive). For the same molecule, the GI50 [43] was 2.58 µM (inactive), the GI50 [44] was 1.93 µM (inactive) and the GI50 [45] was 1.72 µM (inactive). For the same molecule, the GI50 [46] was 2.5 µM (inactive), the GI50 [47] was 3.84 µM (inactive) and the GI50 [48] was 12.8 µM (inactive). For the same molecule, the GI50 [49] was 5.26 µM (inactive) and the GI50 [50] was 9.31 µM (inactive).

With `CC(C)=Nn1cnc2c1=NC(C)(C)NC=2C(N)=O` the GI50 [1] was > 10 µM (inactive), the GI50 [2] was > 10 µM (inactive) and the GI50 [4] was > 10 µM (inactive). The GI50 [6] was > 10 µM (inactive), the GI50 [7] was > 10 µM (inactive) and the GI50 [8] was > 10 µM (inactive). The GI50 [9] was 1 µM (active), the GI50 [10] was > 10 µM (inactive) and the GI50 [51] was > 10 µM (inactive). For the same molecule, the GI50 [11] was > 10 µM (inactive), the GI50 [12] was 0.001 µM (active) and the GI50 [13] was > 10 µM (inactive). For the same molecule, the GI50 [14] was > 10 µM (inactive), the GI50 [52] was 0.125 µM (active) and the GI50 [18] was > 10 µM (inactive). For the same molecule, the GI50 [19] was > 10 µM (inactive), the GI50 [20] was > 10 µM (inactive) and the GI50 [22] was > 10 µM (inactive). The GI50 [23] was > 10 µM (inactive), the GI50 [25] was > 10 µM (inactive) and the GI50 [27] was > 10 µM (inactive). For the same molecule, the GI50 [29] was > 10 µM (inactive), the GI50 [53] was > 10 µM (inactive) and the GI50 [32] was > 10 µM (inactive). For the same molecule, the GI50 [33] was > 10 µM (inactive), the GI50 [34] was > 10 µM (inactive) and the GI50 [35] was > 10 µM (inactive). For the same molecule, the GI50 [36] was > 10 µM (inactive), the GI50 [37] was > 10 µM (inactive) and the GI50 [38] was > 10 µM (inactive). The GI50 [40] was > 10 µM (inactive), the GI50 [41] was > 10 µM (inactive) and the GI50 [42] was > 10 µM (inactive). The GI50 [43] was > 10 µM (inactive), the GI50 [44] was > 10 µM (inactive) and the GI50 [45] was > 10 µM (inactive). For the same molecule, the GI50 [46] was > 10 µM (inactive), the GI50 [47] was > 10 µM (inactive) and the GI50 [48] was > 10 µM (inactive). The GI50 [50] was > 10 µM (inactive).
